One block for each compound: values may come before it.
Key:
[1] = biological target: T1, Rat Hepatic V1 Receptors (Rattus norvegicus, UniProt P30560); assay: Binding Assay to Rat Hepatic V1 Receptors; conditions: for IC50: rat liver membranes, read-out: V1 IC50
T1 construct: Rat liver plasma membranes expressing the vasopressin V1 receptor subtypes; from tissue; host or cells: rat liver plasma membranes

[2] = biological target: T2, Rat Kidney Medullary V2 Receptors (Rattus norvegicus, UniProt Q00788); assay: Binding Assay to Rat Kidney Medullary V2 Receptors; conditions: for IC50: rat kidney medulla membranes, read-out: V2 IC50
T2 construct: Medullary tissues from rat kidneys are dissected out; from tissue; host or cells: rat kidney medulla membranes
T2 sequence (Q00788 whole entry): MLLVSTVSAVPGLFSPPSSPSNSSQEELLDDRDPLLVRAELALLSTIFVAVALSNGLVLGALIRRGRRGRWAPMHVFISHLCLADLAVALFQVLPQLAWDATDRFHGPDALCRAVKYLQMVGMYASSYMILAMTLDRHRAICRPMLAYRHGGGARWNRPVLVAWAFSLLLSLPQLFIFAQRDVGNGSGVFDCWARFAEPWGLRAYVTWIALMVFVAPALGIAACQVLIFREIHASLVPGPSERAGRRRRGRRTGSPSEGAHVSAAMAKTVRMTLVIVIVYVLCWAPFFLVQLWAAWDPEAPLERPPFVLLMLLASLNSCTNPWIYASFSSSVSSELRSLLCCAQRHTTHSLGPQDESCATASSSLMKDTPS
In short: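 IC50 derived from competition curves; bound tritium counted by liquid scintillation after filtration. Rat medullary kidney membranes (Tris-HCl pH 7.4, BSA, PMSF) were incubated 120 min to equilibrium with radioligand and test compound (added in 50% DMSO). Nonspecific binding: 1.0 μM unlabeled ligand.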

[3] = tested on: Vasopressin V2; assay: Vasopressin V2 Antagonist Activity in Conscious Hydrated Rats; type: in vivo, rat; conditions: AVP 0.4 μg/kg i.p.
In short: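 Four-hour urine output, osmolality and electrolytes (Na+, K+, Cl−) recorded in water-loaded rats (30 mL/kg deionized water orally) given AVP i.p. at 0.4 μg/kg. Test compounds were given orally at 0.1–100 mg/kg 1 h before AVP; 2–4 rats per compound.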

[4] = tested on: Vasopressin V1; assay: Vasopressin V1 Antagonist Activity in Conscious Rats (vasopressin vasopressor response); type: in vivo, rat; parameters: Average Change: unit not given here; conditions: for % Inhibition / Average Change: SHR
In short: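 Conscious rats are restrained supine, and under local 2% procaine a PE 10/20 cannula is passed through the ventral caudal tail artery into the lower abdominal aorta. The caudal vein is cannulated for intravenous dosing. Blood pressure is recorded with a Statham P23Db transducer, and vasopressin injections are repeated after compound dosing. Percent antagonism is calculated against the pre-drug vasopressor response taken as 100%.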

[5] = 10 mg/kg i.v., VAS 0.01 i.u./kg, 30 min
[6] = 10 mg/kg i.v., VAS 0.01 i.u./kg, 60 min
[7] = 10 mg/kg i.v., VAS 0.01 i.u./kg, 90 min
[8] = 10 mg/kg i.v., VAS 0.01 i.u./kg, 120 min
[9] = 10 mg/kg i.v., VAS 0.01 i.u./kg, 180 min
[10] = 10 mg/kg i.v., VAS 0.01 i.u./kg, 240 min
[11] = 10 mg/kg i.v., VAS 0.01 i.u./kg, 300 min
[12] = 10 mg/kg i.v., VAS 0.02 i.u./kg, 30 min
[13] = 10 mg/kg i.v., VAS 0.02 i.u./kg, 60 min
[14] = 10 mg/kg i.v., VAS 0.02 i.u./kg, 90 min
[15] = 10 mg/kg i.v., VAS 0.02 i.u./kg, 120 min
[16] = 10 mg/kg i.v., VAS 0.02 i.u./kg, 180 min
[17] = 10 mg/kg i.v., VAS 0.02 i.u./kg, 240 min
[18] = 10 mg/kg i.v., VAS 0.02 i.u./kg, 300 min
[19] = 20 mg/kg i.v., VAS 0.01 i.u./kg, 60 min
[20] = 20 mg/kg i.v., VAS 0.01 i.u./kg, 90 min
[21] = 20 mg/kg i.v., VAS 0.01 i.u./kg, 120 min
[22] = 20 mg/kg i.v., VAS 0.01 i.u./kg, 180 min
[23] = 20 mg/kg i.v., VAS 0.01 i.u./kg, 240 min
[24] = 20 mg/kg i.v., VAS 0.01 i.u./kg, 300 min
[25] = 20 mg/kg i.v., VAS 0.02 i.u./kg, 60 min
[26] = 20 mg/kg i.v., VAS 0.02 i.u./kg, 90 min
[27] = 20 mg/kg i.v., VAS 0.02 i.u./kg, 120 min
[28] = 20 mg/kg i.v., VAS 0.02 i.u./kg, 180 min
[29] = 20 mg/kg i.v., VAS 0.02 i.u./kg, 240 min
[30] = 20 mg/kg i.v., VAS 0.02 i.u./kg, 300 min

T1 sequence (P30560 whole entry): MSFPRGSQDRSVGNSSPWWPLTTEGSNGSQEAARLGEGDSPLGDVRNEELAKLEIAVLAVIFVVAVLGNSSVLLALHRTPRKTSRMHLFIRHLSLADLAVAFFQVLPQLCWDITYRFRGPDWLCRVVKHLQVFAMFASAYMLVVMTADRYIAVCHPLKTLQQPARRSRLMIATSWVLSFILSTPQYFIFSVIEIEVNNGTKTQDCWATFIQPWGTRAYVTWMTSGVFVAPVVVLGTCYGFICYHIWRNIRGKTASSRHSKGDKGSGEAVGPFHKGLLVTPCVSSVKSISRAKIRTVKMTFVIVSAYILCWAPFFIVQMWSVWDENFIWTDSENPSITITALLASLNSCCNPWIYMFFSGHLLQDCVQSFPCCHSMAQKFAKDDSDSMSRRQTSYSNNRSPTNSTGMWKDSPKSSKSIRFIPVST

IC50 [1]: 31 nM | IC50 [2]: 14 nM
SMILES: COc1ccccc1C(=O)Nc1ccc(C(=O)N2Cc3cccn3Cc3ccccc32)cc1 [Example 2, N-[4-(5H-Pyrrolo[2,1-c][1,4]benzodiazepin-10(11H)-ylcarbonyl)phenyl]-2-methoxybenzamide]
Osmolality ([3]; 10 mg/kg orally): 1015 mOsm/kg | Urine Volume ([3]; 10 mg/kg orally): 9.3 ml/4 hrs | % Inhibition [4, 5]: 79% | Average Change [4, 5]: 6.5 | % Inhibition [4, 6]: 74% | Average Change [4, 6]: 8 | % Inhibition [4, 7]: 66% | Average Change [4, 7]: 10.5 | % Inhibition [4, 8]: 69% | Average Change [4, 8]: 9.5 | % Inhibition [4, 9]: 55% | Average Change [4, 9]: 14 | % Inhibition [4, 10]: 47% | Average Change [4, 10]: 16.5 | % Inhibition [4, 11]: 44% | Average Change [4, 11]: 17.5 | % Inhibition [4, 12]: 84% | Average Change [4, 12]: 8 | % Inhibition [4, 13]: 74% | Average Change [4, 13]: 13 | % Inhibition [4, 14]: 70% | Average Change [4, 14]: 15 | % Inhibition [4, 15]: 70% | Average Change [4, 15]: 15 | % Inhibition [4, 16]: 56% | Average Change [4, 16]: 22 | % Inhibition [4, 17]: 50% | Average Change [4, 17]: 25 | % Inhibition [4, 18]: 37% | Average Change [4, 18]: 31.5 | Max. % Inhibition ([4]; 30 mg/kg i.v.): 74% | Time (of max. % inhibition) ([4]; 30 mg/kg i.v.): 120 min

IC50 [1]: 15 nM | IC50 [2]: 25 nM
SMILES: Cc1ccsc1C(=O)Nc1ccc(C(=O)N2Cc3cccn3Cc3ccccc32)cc1 [Example 5, N-[4-(5H-pyrrolo[2,1-c][1,4]benzodiazepin10(11H)-ylcarbonyl)phenyl]-3-methyl-2-thiophenecarboxamide]
Osmolality ([3]; 10 mg/kg orally): 1079 mOsm/kg | Urine Volume ([3]; 10 mg/kg orally): 8.5 ml/4 hrs | Osmolality ([3]; 30 mg/kg orally): 955 mOsm/kg | Urine Volume ([3]; 30 mg/kg orally): 7.7 ml/4 hrs | % Inhibition [4, 5]: 83% | Average Change [4, 5]: 5.5 | % Inhibition [4, 6]: 76% | Average Change [4, 6]: 7.5 | % Inhibition [4, 7]: 71% | Average Change [4, 7]: 9 | % Inhibition [4, 8]: 59% | Average Change [4, 8]: 13 | % Inhibition [4, 9]: 62% | Average Change [4, 9]: 12 | % Inhibition [4, 10]: 46% | Average Change [4, 10]: 17 | % Inhibition [4, 11]: 5% | Average Change [4, 11]: 30 | % Inhibition [4, 12]: 72% | Average Change [4, 12]: 13.5 | % Inhibition [4, 13]: 78% | Average Change [4, 13]: 10.5 | % Inhibition [4, 14]: 83% | Average Change [4, 14]: 8 | % Inhibition [4, 15]: 69% | Average Change [4, 15]: 15 | % Inhibition [4, 16]: 60% | Average Change [4, 16]: 19 | % Inhibition [4, 17]: 51% | Average Change [4, 17]: 23.5 | % Inhibition [4, 18]: 18% | Average Change [4, 18]: 39.5

inhibition at 10 µM ([1]; 2 h, 10 μM, rat): 23% | inhibition at 10 µM ([2]; 10 μM, rat): 71%
SMILES: O=C(Nc1ccc(C(=O)N2Cc3cccn3Cc3ccccc32)cc1)c1sc2ccccc2c1Cl [Example 82, N-[4-(5H-Pyrrolo[2,1-c][1,4]benzodiazepin-10(11H)-ylcarbonyl)phenyl]-3-chlorobenzo[b]thiophene-2-carboxamide]
Osmolality ([3]; 20 mg/kg orally): 1300 mOsm/kg | Urine Volume ([3]; 20 mg/kg orally): 4.3 ml/4 hrs | % Inhibition [4, 5]: 24% | Average Change [4, 5]: 36 | % Inhibition [4, 12]: -5% | Average Change [4, 12]: 54 | % Inhibition [4, 19]: 67% | Average Change [4, 19]: 15.5 | % Inhibition [4, 20]: 51% | Average Change [4, 20]: 23.5 | % Inhibition [4, 21]: 65% | Average Change [4, 21]: 16.5 | % Inhibition [4, 22]: 61% | Average Change [4, 22]: 18.5 | % Inhibition [4, 23]: 39% | Average Change [4, 23]: 29 | % Inhibition [4, 24]: 33% | Average Change [4, 24]: 32 | % Inhibition [4, 25]: 28% | Average Change [4, 25]: 37 | % Inhibition [4, 26]: 53% | Average Change [4, 26]: 24 | % Inhibition [4, 27]: 25% | Average Change [4, 27]: 38.5 | % Inhibition [4, 28]: 16% | Average Change [4, 28]: 43.5 | % Inhibition [4, 29]: 18% | Average Change [4, 29]: 42 | % Inhibition [4, 30]: -3% | Average Change [4, 30]: 53

Second part, the compound before the results:

SMILES: O=C(Nc1ccc(C(=O)N2Cc3cccn3Cc3ccccc32)cc1)c1ccccc1F [Example 8, N-[4-(5H-pyrrolo[2,1-c][1,4]benzodiazepin10(11H)-ylcarbonyl)phenyl]-2-fluorobenzamide]
IC50 [1]: 56 nM | IC50 [2]: 35 nM | Osmolality ([3]; 10 mg/kg orally): 1211 mOsm/kg | Urine Volume ([3]; 10 mg/kg orally): 3.4 ml/4 hrs | Osmolality ([3]; 30 mg/kg orally): 1010 mOsm/kg | Urine Volume ([3]; 30 mg/kg orally): 9.1 ml/4 hrs | % Inhibition [4, 5]: 61% | Average Change [4, 5]: 14.5 | % Inhibition [4, 6]: 61% | Average Change [4, 6]: 14.5 | % Inhibition [4, 7]: 73% | Average Change [4, 7]: 10 | % Inhibition [4, 8]: 69% | Average Change [4, 8]: 11.5 | % Inhibition [4, 9]: 62% | Average Change [4, 9]: 14 | % Inhibition [4, 10]: 59% | Average Change [4, 10]: 15 | % Inhibition [4, 11]: 51% | Average Change [4, 11]: 18 | % Inhibition [4, 12]: 54% | Average Change [4, 12]: 23.5 | % Inhibition [4, 13]: 58% | Average Change [4, 13]: 21.5 | % Inhibition [4, 14]: 66% | Average Change [4, 14]: 17.5 | % Inhibition [4, 15]: 70% | Average Change [4, 15]: 15.5 | % Inhibition [4, 16]: 46% | Average Change [4, 16]: 28 | % Inhibition [4, 17]: 44% | Average Change [4, 17]: 29 | % Inhibition [4, 18]: 46% | Average Change [4, 18]: 28

SMILES: O=C(Cc1ccccc1Cl)Nc1ccc(C(=O)N2Cc3cccn3Cc3ccccc32)cc1 [Example 9, 2-Chloro-N-[4-(5H-pyrrolo[2,1-c][1,4]-benzodiazepin-10(11H)-ylcarbonyl)phenyl]benzeneacetamide]
IC50 [1]: 7 nM | IC50 [2]: 4 nM | Osmolality ([3]; 10 mg/kg orally): 702 mOsm/kg | Urine Volume ([3]; 10 mg/kg orally): 5.8 ml/4 hrs | Max. % Inhibition ([4]; 10 mg/kg i.v.): 95% | Time (of max. % inhibition) ([4]; 10 mg/kg i.v.): 60 min

SMILES: Cc1ccccc1C(=O)Nc1ccc(C(=O)N2Cc3cccn3-c3ccccc32)cc1 [Example 14, 2-Methyl-N-[4-(pyrrolo[1,2-a]quinoxalin-5 (4H)-ylcarbonyl)phenyl]benzamide]
IC50 [1]: 170 nM | IC50 [2]: 66 nM | Osmolality ([3]; 3 mg/kg orally): 1000 mOsm/kg | Urine Volume ([3]; 3 mg/kg orally): 4.5 ml/4 hrs | Osmolality ([3]; 10 mg/kg orally): 836 mOsm/kg | Urine Volume ([3]; 10 mg/kg orally): 5.2 ml/4 hrs | % Inhibition [4, 5]: 25% | Average Change [4, 5]: 26 | % Inhibition [4, 6]: 23% | Average Change [4, 6]: 26.5 | % Inhibition [4, 7]: 39% | Average Change [4, 7]: 21 | % Inhibition [4, 8]: 23% | Average Change [4, 8]: 26.5 | % Inhibition [4, 9]: 6% | Average Change [4, 9]: 32.5 | % Inhibition [4, 10]: 17% | Average Change [4, 10]: 28.5 | % Inhibition [4, 11]: 26% | Average Change [4, 11]: 25.5 | % Inhibition [4, 12]: 20% | Average Change [4, 12]: 38 | % Inhibition [4, 13]: 34% | Average Change [4, 13]: 31.5 | % Inhibition [4, 14]: 16% | Average Change [4, 14]: 40 | % Inhibition [4, 15]: 17% | Average Change [4, 15]: 39.5 | % Inhibition [4, 16]: -9% | Average Change [4, 16]: 52 | % Inhibition [4, 17]: 25% | Average Change [4, 17]: 35.5 | % Inhibition [4, 18]: 16% | Average Change [4, 18]: 40

Reference: patent US5624923A, “Tricyclic diazepine vasopressin antagonists and oxytocin antagonists” (priority 1995, dated 1997)
